Test results published in patent US20090192192A1, “INHIBITORS OF BIOFILM FORMATION OF GRAM-POSITIVE AND GRAM-NEGATIVE BACTERIA” (priority 2007, published 2009).

Each compound was assayed on Pseudomonas aeruginosa PAO1 (assay: MBEC assay, biofilm formation of P. aeruginosa PAO1). Conditions: compound concentration 100 μM, class symbols.
Format: cell-based
How it was run: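 Peg-lid biofilms were grown 24 h at 35±2 °C, 110 rpm, from inoculum diluted to ~6.0×10^5 cells per mL in TSB, with compound at 10 μM or 100 μM final (1% DMSO) in 1% Tween 80/CAMHB. Pegs were rinsed, then sonicated 30 min into recovery medium; survivors were spot-plated, and recovery plates were read visually after 24 h; triplicates.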

Compound | inhibition at 100 µM
CCCCCCCCCOCC(=O)Nc1cc(-c2ccccc2)nn1C [Example 108, N-(1-methyl-3-phenylpyrazol-5-yl)-2-(nonyloxy)acetamide] | > 50%
CCCCCCCCCCCCCCNC(=O)Nc1cc(C)nn1C [Example 87, 1-(1,3-dimethylpyrazol-5-yl)-3-tetradecylurea] | < 20%
CCCCOCCOCC(=O)Nc1ccc(F)cc1C(F)(F)F [Example 120, 2-(2-butoxyethoxy)-N-(4-fluoro-2-(trifluoromethyl)phenyl)acetamide] | 20 to 50%
CCCCCCCCCCNC(=O)N(C)c1cc(-c2ccccc2)nn1C [Example 72, 3-decyl-1-methyl-1-(1-methyl-3-phenylpyrazol-5-yl)urea] | 20 to 50%
CCCCCCCCCCCC(=O)N(C)c1ccc(F)cc1 [Example 20, N-(4-fluorophenyl)-N-methyldodecanamide] | > 50%
CCCCCCNC(=O)Nc1cc(C(C)(C)C)nn1C [Example 43, 1-(3-tert-butyl-1-methylpyrazol-5-yl)-3-hexylurea] | 20 to 50%
CCCCCCCCCCNC(=O)Nc1ccc(F)cc1F [Example 55, 1-decyl-3-(2,4-difluorophenyl)urea] | < 20%
CCCCCCCCCCCC(=O)Nc1ccc(F)cc1F [Example 21, N-(2,4-difluorophenyl)dodecanamide] | < 20%
CCCCCCCN(C)CCCC(=O)N1CCCC(C(=O)N(CC)CC)C1 (centres unmarked) [Example 138, N,N-diethyl-1-(4-(heptyl(methyl)amino)butanoyl)piperidine-3-carboxamide] | < 20%
CCCCCCCCCCCCCCCCNC(=O)Nc1cc(C)nn1C [Example 89, 1-(1,3-dimethylpyrazol-5-yl)-3-hexadecylurea] | < 20%
CCCCCCCCCCNC(=O)N(C)c1ccccc1F [Example 50, 3-decyl-1-(2-fluorophenyl)-1-methylurea] | 20 to 50%
CCCCCCCCCCCC(=O)N1CCC(C(=O)N(CC)CC)C1 (centres unmarked) [Example 148, 1-dodecanoyl-N,N-diethylpyrrolidine-3-carboxamide] | > 50%
CCCCCCCCCCNC(=O)Nc1nc(C(C)(C)C)cs1 [Example 78, 1-(4-tert-butylthiazol-2-yl)-3-decylurea] | 20 to 50%
CCCCCCCCCCNC(=O)Nc1ccnn1C [Example 61, 1-decyl-3-(1-methylpyrazol-5-yl)urea] | 20 to 50%
CCCCCCCCCCCCNC(=O)Nc1cc(-c2ccccc2)nn1C [Example 86, 1-dodecyl-3-(1-methyl-3-phenylpyrazol-5-yl)urea] | < 20%
COCCOCCOCC(=O)N(C)c1ccc(F)cc1 [Example 125, N-(4-fluorophenyl)-2-(2-(2-methoxyethoxy)ethoxy)-N-methylacetamide] | < 20%
CCCCCCCCCCNC(=O)N(C)[C@H](C)c1ccccc1 [Example 60, (R)-3-decyl-1-methyl-1-(1-phenylethyl)urea] | > 50%
CCCCCCCCCCCCCCCCCCNC(=O)Nc1cc(C2CC2)nn1C [Example 93, 1-(3-cyclopropyl-1-methyrpyrazol-5-yl)-3-octadecylurea] | < 20%
CCCCCCCCCCNC(=O)Nc1cc(C2CC2)nn1C [Example 66, 1-(3-cyclopropyl-1-methylpyrazol-5-yl)-3-decylurea] | > 50%
CCCCCCCCCCNC(=O)Nc1cc(C(C)(C)C)n[nH]1 [Example 68, 1-(3-tert-butylpyrazol-5-yl)-3-decylurea] | 20 to 50%
CCCCCCCCCCNC(=O)N(C)c1ccc(F)cc1F [Example 56, 3-decyl-1-(2,4-difluorophenyl)-1-methylurea] | < 20%
CCCCCCCCNC(=O)Nc1cc(C)nn1C [Example 44, 1-(1,3-dimethylpyrazol-5-yl)-3-octylurea] | 20 to 50%
CCCCCCCCCCCC(=O)N1CCC(C(=O)Nc2ccccc2)C1 (centres unmarked) [Example 151, 1-dodecanoyl-N-phenylpyrrolidine-3-carboxamide] | 20 to 50%
CCCCCCCCCCCC(=O)Nc1ccccc1C(=O)O [Example 25, 2-dodecanamidobenzoic acid] | > 50%
CCCCCCCCCCNC(=O)Nc1cc(C)nn1C [Example 63, 1-decyl-3-(1,3-dimethylpyrazol-5-yl)urea] | 20 to 50%
CCCCCCCCCCCCNC(=O)Nc1cc(C(C)(C)C)nn1C [Example 85, 1-(3-tert-butyl-1-methylpyrazol-5-yl)-3-dodecylurea] | > 50%
CCCCCCCCCCCC(=O)N1CCCC(C(=O)N2CCCC2)C1 (centres unmarked) [Example 136, 1-(3-(pyrrolidine-1-carbonyl)piperidin-1-yl)dodecan-1-one] | < 20%
CCCCCCCCCCCC(=O)N1CCC(C(N)=O)C1 (centres unmarked) [Example 145, 1-dodecanoylpyrrolidine-3-carboxamide] | > 50%
CCCCCCCCCCCC(=O)Nc1cc(C)nn1-c1ccccc1 [Example 31, N-(3-methyl-1-phenylpyrazol-5-yl)dodecanamide] | < 20%
